Measured values as given in BindingDB's records for doi:10.1021/jm00117a017 (Merck Sharp and Dohme Research Laboratories, 1988).
pIC50: −log10 of the molar value.

Molecular target: D-alanine--D-alanine ligase (Enterococcus faecalis)
Test: Antibacterial activity against D-alanyl-D-alanine ligase from Streptococcus faecalis (ATCC 8043)
`CCCC(CP(=O)(O)C(C)N)C(=O)O` (stereo not given) [2-[(1-Amino-ethyl)-hydroxy-phosphinoylmethyl]-pentanoic acid;hydrate] gave a pIC50 of 4.70. Work on `C[C@H](N)P(=O)(O)O` [1-Ammonium-ethanephosphonic acid anion] yielded a pIC50 of 3.03. With `CCCCC(C[PH](O)(O)C(=N)CC)C(=O)O` (stereo not given) [2-[(1-Amino-propyl)-hydroxy-phosphinoylmethyl]-hexanoic acid;hydrate] the pIC50 was 3.81. `CC(N)P(=O)(O)CC(CCCc1ccccc1)C(=O)O` (stereo not given) [2-[(1-Amino-ethyl)-hydroxy-phosphinoylmethyl]-5-phenyl-pentanoic acid;hydrate] gave a pIC50 of 4.30. With `CC(N)P(=O)(O)CC(Cc1ccccc1)C(=O)O` (stereo not given) the pIC50 was 4.30. Work on `CC(=N)[PH](O)(O)CC(CC(C)C)C(=O)O` (stereo not given) [2-[(1-Amino-ethyl)-hydroxy-phosphinoylmethyl]-4-methyl-pentanoic acid;hydrate] yielded a pIC50 of 4.52. Molecule `CCC(C[PH](O)(O)C(C)=N)C(=O)O` (stereo not given) [2-[(1-Amino-ethyl)-hydroxy-phosphinoylmethyl]-butyric acid;hydrate] has a pIC50 of 4.35. Work on `CC(=N)[PH](O)(O)CC(CCc1ccccc1)C(=O)O` (stereo not given) [2-[(1-Amino-ethyl)-hydroxy-phosphinoylmethyl]-4-phenyl-butyric acid;hydrate] yielded a pIC50 of 4.40. Work on `CCCCCCCC(C[PH](O)(O)C(C)=N)C(=O)O` (stereo not given) yielded a pIC50 of 3.70.

Molecular target: not listed separately
Test: as above
With `CCCCCCCC(C[PH](O)(O)C(C)=N)C(=O)O` (stereo not given) the pIC50 was 4.90.
